Results as given in patent US7393812B2, “Methylidene mevalonates and their use as herbicides” (Dow AgroSciences LLC, priority 2004, dated 2008).

Experiments:
Assay type in all cases: in vivo
[1] = test system: crabgrass (Digitaria sanguinalis, DIGSA); assay: Synergistic herbicidal activity, foliar track sprayer; details: nonanoic acid 1120 g ae/ha alone, 14 days, 1% crop oil concentrate
Experimental: (§1) Methylidene mevalonate alone and in combination with nonanoic acid was applied to the foliage of rapidly growing plant material utilizing a track sprayer calibrated to deliver an application volume of 187 L/ha. These treatments were applied to both broadleaf and grass weed species. All treatments contained 1% crop oil concentrate. Assessment of herbicidal activity was performed visually relative to untreated controls after 14 days incubation in the greenhouse. Species abbreviations are as previously defined.

[2] = test system: lambsquarters (Chenopodium album, CHEAL); assay: as above; details: nonanoic acid 1120 g ae/ha alone, 14 days, 1% crop oil concentrate
Experimental: as §1

[3] = test system: morningglory (Ipomoea hederacea, IPOHE); assay: as above; details: nonanoic acid 1120 g ae/ha alone, 14 days, 1% crop oil concentrate
Experimental: as §1

[4] = test system: wild oats (Avena fatua, AVEFA); assay: as above; details: nonanoic acid 1120 g ae/ha alone, 14 days, 1% crop oil concentrate
Experimental: as §1

[5] = test system: barnyardgrass (Echinochloa crusgalli, ECHCG); assay: Post-emergent evaluation; details: for GR80: data gathered 15 days after treatment, probit analysis; for % growth reduction at the lowest rate tested: 15 days after treatment
Experimental: (§2) Seeds of the desired test plant species were planted in Grace-Sierra MetroMix® 306 planting mixture, which typically has a pH of 6.0 to 6.8 and an organic matter content of about 30 percent, in plastic pots with a surface area of 64 square centimeters. When required to ensure good germination and healthy plants, a fungicide treatment and/or other chemical or physical treatment was applied. The plants were grown for 7-21 days in a greenhouse with an approximate 15 hr photoperiod which was maintained at about 23-29° C. during the day and 22-28° C. during the night. Nutrients and water were added on a regular basis and supplemental lighting was provided with overhead metal halide 1000-Watt lamps as necessary. The plants were employed for testing when they reached the first or second true leaf stage.
(§3) A weighed amount, determined by the highest rate to be tested, of each test compound was placed in a 20 mL glass vial and was dissolved in 4 mL of a 97:3 v/v (volume/volume) mixture of acetone and dimethyl sulfoxide (DMSO) to obtain concentrated stock solutions. […] The concentrated stock solutions obtained were diluted with an aqueous mixture containing acetone, water, isopropyl alcohol, DMSO, Atplus 411F crop oil concentrate, and Triton X-155 surfactant in a 48.5:39:10:1.5:1.0:0.02 v/v ratio to obtain spray solutions of known concentration. The solutions containing the highest concentration to be tested were prepared by diluting 2 mL aliquots of the stock solution with 13 mL of the mixture and lower concentrations were prepared by serial dilution of the stock solution. Approximately 1.5 mL aliquots of each solution of known concentration were sprayed evenly onto each of the test plant pots using a DeVilbiss atomizer driven by compressed air pressure of 2 to 4 psi ([…]) to obtain thorough coverage of each plant. Control plants were sprayed in the same manner with the aqueous mixture. In this test an application rate of 1 ppm results in the application of approximately 1 g/Ha.
(§4) The treated plants and control plants were placed in a greenhouse as described above and watered by sub-irrigation to prevent wash-off of the test compounds. […] Species abbreviations as described for Table I with the following additions: soybean (Glycine max, GLXMA), rape (Brassica napus, BRSNN), chickweed (Stellaria media, STEME), cocklebur (Xanthium strumarium XANST), lambsquarters (Chenopodium album, CHEAL), violet (Viola tricolor, VIOTR), bindweed (Polygonum convolvulus, POLCO), spurge (Euphorbia heterophylla, EPHHL), Canada thistle (Cirsium arvense, CIRAR), corn (Zea mays, ZEAMX), rice (Oryza sativa, ORYSA), wheat (Triticum aestivum, TRZAS), crabgrass (Digitaria sanguinalis, DIGSA), shattercane (Sorghum vulgare, SORVU) and yellow nutsedge (Cyperus esculentus, CYPES).
(§5) By applying the well-accepted probit analysis as described by J. Berkson in Journal of the American Statistical […], 48, 565 (1953) and by D. Finney in “Probit Analysis” Cambridge University Press (1952), similar data can be used to calculate GR80 values, which are defined as growth reduction factors that correspond to the effective dose of herbicide required to kill or control 80 percent of a target plant. Species abbreviations are as previously defined.

[6] = test system: chickweed (Stellaria media, STEME); assay: Post-emergent evaluation; details: data gathered 15 days after treatment, probit analysis
Experimental: as §2, §3, §4, §5

[7] = test system: giant foxtail (Setaria faberi, SETFA); assay: Post-emergent evaluation; details: for GR80: data gathered 15 days after treatment, probit analysis; for % growth reduction at the lowest rate tested: 15 days after treatment
Experimental: as §2, §3, §4, §5

[8] = test system: morningglory (Ipomoea hederacea, IPOHE); assay: Post-emergent evaluation; details: data gathered 15 days after treatment, probit analysis
Experimental: as §2, §3, §4, §5

[9] = test system: shattercane (Sorghum vulgare, SORVU); assay: Post-emergent evaluation; details: for GR80: data gathered 15 days after treatment, probit analysis
Experimental: as §2, §3, §4, §5

[10] = test system: velvetleaf (Abutilon theophrasti, ABUTH); assay: Post-emergent evaluation; details: data gathered 15 days after treatment, probit analysis
Experimental: as §2, §3, §4, §5

[11] = test system: violet (Viola tricolor, VIOTR); assay: Post-emergent evaluation; details: data gathered 15 days after treatment, probit analysis
Experimental: as §2, §3, §4, §5

[12] = test system: crabgrass (Digitaria sanguinalis, DIGSA); assay: Post-emergent evaluation; details: data gathered 15 days after treatment, probit analysis
Experimental: as §2, §3
(§6) The treated plants and control plants were placed in a greenhouse as described above and watered by sub-irrigation to prevent wash-off of the test compounds. After 2 weeks the condition of the test plants as compared with that of the untreated plants was determined visually and scored on a scale of 0 to 100 percent where 0 corresponds to no injury and 100 corresponds to complete kill. Species abbreviations as described for Table I with the following additions: soybean (Glycine max, GLXMA), rape (Brassica napus, BRSNN), chickweed (Stellaria media, STEME), cocklebur (Xanthium strumarium XANST), lambsquarters (Chenopodium album, CHEAL), violet (Viola tricolor, VIOTR), bindweed (Polygonum convolvulus, POLCO), spurge (Euphorbia heterophylla, EPHHL), Canada thistle (Cirsium arvense, CIRAR), corn (Zea mays, ZEAMX), rice (Oryza sativa, ORYSA), wheat (Triticum aestivum, TRZAS), crabgrass (Digitaria sanguinalis, DIGSA), shattercane (Sorghum vulgare, SORVU) and yellow nutsedge (Cyperus esculentus, CYPES).
as §5

[13] = test system: yellow nutsedge (Cyperus esculentus, CYPES); assay: Post-emergent evaluation; details: data gathered 15 days after treatment, probit analysis
Experimental: as §2, §3, §6, §5

test plant species = assay: Biological assays of the enantiomers (herbicidal activity); details: resolved enantiomers
Experimental: as §2, with “The plants were employed for testing when they reached the first or second true leaf stage.” left out
A weighed amount, determined by the highest rate to be tested, of each test compound was placed in a 20 mL glass vial and was dissolved in 4 mL of a 97:3 v/v (volume/volume) mixture of acetone and dimethyl sulfoxide (DMSO) to obtain concentrated stock solutions. […]
The treated plants and control plants were placed in a greenhouse as described above and watered by sub-irrigation to prevent wash-off of the test compounds. After 2 weeks the condition of the test plants as compared with that of the untreated plants was determined visually and scored on a scale of 0 to 100 percent where 0 corresponds to no injury and 100 corresponds to complete kill. […]

Question: Which “Actual Injury % growth reduction” value [1] does the source give for `CCCCCCCCC(=O)O` [Nonanoic Acid, nonanoic acid, reference compound] here?
Answer: 0%

Question: And the “Actual Injury % growth reduction” value [2]?
Answer: 0%

Question: And the “Actual Injury % growth reduction” value [3]?
Answer: 0%

Question: And the “Actual Injury % growth reduction” value [4]?
Answer: 0%

Question: Which results are given for `C=C1COC(=O)CC1(C)O` (centres unmarked) [Methylidene Mevalonolactone]?
Answer: GR80 [5]: < 375 g ae/ha; % growth reduction at the lowest rate tested [5]: 100%; GR80 [6]: 3032 g ae/ha; GR80 [7]: 430 g ae/ha; GR80 [8]: 725 g ae/ha; GR80 [9]: 615 g ae/ha; GR80 [10]: 2266 g ae/ha; GR80 [11]: 2473 g ae/ha; GR80 [12]: 834 g ae/ha; GR80 [13]: 834 g ae/ha

Question: How did the GR80 [5] turn out when `C=C(CO)C(C)(O)CC(=O)[O-].[Na+]` (racemic) was run?
Answer: < 375 g ae/ha

Question: And the “% growth reduction at the lowest rate tested” value [5]?
Answer: 98%

Question: And the GR80 [6]?
Answer: 1358 g ae/ha

Question: What about the GR80 [7] of the same compound?
Answer: < 375 g ae/ha

Question: And the “% growth reduction at the lowest rate tested” value [7]?
Answer: 97%

Question: What about the GR80 [8] of the same compound?
Answer: 416 g ae/ha

Question: And the GR80 [9]?
Answer: < 375 g ae/ha

Question: And the “% growth reduction at the lowest rate tested” value ([9]; lowest rate tested, 15 days after treatment)?
Answer: 93%

Question: And the GR80 [10]?
Answer: 965 g ae/ha

Question: And the GR80 [11]?
Answer: 2290 g ae/ha

Question: What about the GR80 [12] of the same compound?
Answer: 774 g ae/ha

Question: And the GR80 [13]?
Answer: 375 g ae/ha

Question: Which GR80 ([5]; Potassium Salt) does the source give for `C=C(CO)C(C)(O)CC(=O)[O-].[K+]` (single isomer, unassigned; (-)) [(−)-4-Methylidene Mevalonate, Potassium Salt] here?
Answer: >1500 g ae/ha

Question: And the GR80 ([6]; Potassium Salt)?
Answer: >1500 g ae/ha

Question: And the GR80 ([7]; Potassium Salt)?
Answer: >1500 g ae/ha

Question: What about the GR80 ([8]; Potassium Salt) of the same compound?
Answer: >1500 g ae/ha

Question: And the GR80 ([9]; Potassium Salt)?
Answer: >1500 g ae/ha

Question: And the GR80 ([10]; Potassium Salt)?
Answer: >1500 g ae/ha

Question: And the GR80 ([11]; Potassium Salt)?
Answer: >1500 g ae/ha

Question: What about the GR80 ([12]; Potassium Salt) of the same compound?
Answer: >1500 g ae/ha

Question: And the GR80 ([13]; Potassium Salt)?
Answer: >1500 g ae/ha

Question: Which GR80 ([5]; Potassium Salt) does the source give for `C=C(CO)C(C)(O)CC(=O)[O-].[K+]` (single isomer, unassigned; (+)) [(+)-4-Methylidene Mevalonate, Potassium Salt] here?
Answer: 351 g ae/ha

Question: And the GR80 ([6]; Potassium Salt)?
Answer: 1349 g ae/ha

Question: What about the GR80 ([7]; Potassium Salt) of the same compound?
Answer: 183 g ae/ha

Question: And the GR80 ([8]; Potassium Salt)?
Answer: 341 g ae/ha

Question: And the GR80 ([9]; Potassium Salt)?
Answer: 490 g ae/ha

Question: What about the GR80 ([10]; Potassium Salt) of the same compound?
Answer: 1135 g ae/ha

Question: What about the GR80 ([11]; Potassium Salt) of the same compound?
Answer: 1865 g ae/ha

Question: What about the GR80 ([12]; Potassium Salt) of the same compound?
Answer: 916 g ae/ha

Question: What about the GR80 ([13]; Potassium Salt) of the same compound?
Answer: 429 g ae/ha

Question: And the herbicidal activity (test plant species)?
Answer: herbicidal activity was manifested

Question: With `C=C(CO)C(C)(O)CC(=O)[O-].[K+]` (racemic) as the compound, how does the GR80 [5] read?
Answer: < 375 g ae/ha

Question: What about the “% growth reduction at the lowest rate tested” value [5] of the same compound?
Answer: 98%

Question: And the GR80 [6]?
Answer: 2089 g ae/ha

Question: And the GR80 [7]?
Answer: < 375 g ae/ha

Question: What about the “% growth reduction at the lowest rate tested” value [7] of the same compound?
Answer: 95%

Question: And the GR80 [8]?
Answer: 375 g ae/ha

Question: What about the GR80 [9] of the same compound?
Answer: 400 g ae/ha

Question: And the GR80 [10]?
Answer: 720 g ae/ha

Question: What about the GR80 [11] of the same compound?
Answer: 1768 g ae/ha

Question: What about the GR80 [12] of the same compound?
Answer: 1003 g ae/ha

Question: What about the GR80 [13] of the same compound?
Answer: 603 g ae/ha
